Results as given in patent US6071747A, “Immortalized cell lines from human adipose tissue, process for preparing same and applications thereof” (Centre National de la Recherche Scientifique-CNRS, priority 1995, dated 2000).
Like-named read-outs stand apart in the source and are kept apart here. Values belong to the compound of their own block, whether it stands above or below them.

How the values were obtained:
[1] = system: Ob mice; conditions: Ob mice with mutant gene; injected; cited from earlier work
[2] = system: differentiated PAZ-6 human adipocytes; assay: Lipolysis assay (glycerol release) on the PAZ-6 line; type: cell-based; conditions: differentiated PAZ-6 adipocytes; 2 hours at 37° C.; forskolin 10^-4 M, other agonists 10^-5 M; catecholamines with or without phentolamine 20 μg/ml
Experimental: The lipolysis test consists in measuring the amount of glycerol generated by the mature adipocytes treated with lipolytic ligands.
Monolayers of (differentiated) mature adipocytes in culture plates (6 wells) are washed and preincubated overnight in DMEM/Ham's F12 (1:1, v/v) comprising 1% of fatty acid-free BSA. The cells are then incubated in a Krebs-Ringer phosphate buffer (pH 7.4) comprising 2% of fatty acid-free BSA, 4.5 g/l of glucose, 50 μg/ml of Na2 S2 O5 and the β-adrenergic ligands, in a volume of 500 μl, for 2 hours at 37° C.
The glycerol level is measured on 100 μl of incubation medium by following the reduction of NAD to NADH at 340 nm in the presence of 10 μg/ml of glycerol dehydrogenase (derived from Enterobacter aerogenes, Boehringer Mannheim) in the following reaction buffer: K2 CO3 /NaHCO3 125 mM pH 10, NAD 3.5 mM and (NH4)2 SO4 330 mM.

[3] = system: β-adrenergic receptors coupled with adenylyl cyclase in PAZ-6 cells; conditions: for Accumulation of cAMP, pmol cAMP/mg protein: agonist 15 min at 37° C.
Experimental: (§1) The following method is used to determine the intracellular levels of cAMP:
(§2) The incubation buffer is removed and the cells are lyzed in 1 M NaOH for at least 20 min at 37° C. The lyzate is neutralized with 1 M acetic acid and centrifuged in a microcentrifuge at maximum speed for 5 min.
(§3) The supernatant is used to determine the cAMP (cAMP-^3 H kit, Amersham).

[4] = system: mRNA coding for the Ob protein; conditions: rat adipocytes; cited from earlier work
[5] = system: β-adrenergic receptors (I-CYP binding sites) of PAZ-6 cells
Experimental: * determination of the binding sites for the β antagonist ligand iodocyanopindolol (I-CYP) in the PAZ-6 cell line
The cells are washed with PBS, incubated for 5 minutes at 37° C. with a solution of trypsin/2% EDTA and resuspended in DMEM supplemented with 10% (v/v) of horse serum.
After centrifugation at 450×g for 5 minutes at 4° C., the cellular residue is washed twice with PBS and the cells are then resuspended in PBS.
The actual binding assay itself is carried out for 90 min at 25° C. in a final volume of […] of PBS supplemented with 50 mg/ml of bovine serum albumin and 1 mM desipramine.
The reaction is stopped by rapid filtration through a Whatman GF/C glass fibre filter previously immersed for 30 min in a solution of PBS containing 0.3% of polyethyleneimine (to reduce the non-specific bindings).
The protein concentrations are determined by the method of M. Bradford (Anal. Biochem., 1976, 72, 248-256).
Bovine serum albumin is used as the standard and the cellular suspensions are homogenized with a Polytron homogenizer for a maximum of 5 seconds before the reaction.

[6] = molecular target: β-adrenergic receptors coupled with adenylyl cyclase in PAZ-6 cells (Homo sapiens, UniProt P13945); conditions: differentiated PAZ-6; 15 min
Experimental: as §1, §2, §3

[7] = system: PAZ-6 preadipocytes; assay: Differentiation of PAZ-6 preadipocytes into mature adipocytes; type: cell-based, human; conditions: in the presence of insulin and dexamethasone; 1 μM pioglitazone
Experimental: The cells are inoculated at a density of 10,000 cells/cm^2 and cultivated for 3 days in a medium containing 6% of foetal calf serum in order to obtain confluence; an ITT medium (DMEM/HAM F12 medium supplemented with biotin, pantothenate, Hepes, T3, penicillin and streptomycin, as defined above) is then added to said cells, said medium also containing 0.1 μM dexamethasone, 850 nM insulin, 1 μM pioglitazone and 0.25 mM IBMX (3-isobutyl-1-methylxanthine) for 4 days.

Sequence of β-adrenergic receptors coupled with adenylyl cyclase in PAZ-6 cells (Homo sapiens, UniProt P13945) (P13945 whole entry): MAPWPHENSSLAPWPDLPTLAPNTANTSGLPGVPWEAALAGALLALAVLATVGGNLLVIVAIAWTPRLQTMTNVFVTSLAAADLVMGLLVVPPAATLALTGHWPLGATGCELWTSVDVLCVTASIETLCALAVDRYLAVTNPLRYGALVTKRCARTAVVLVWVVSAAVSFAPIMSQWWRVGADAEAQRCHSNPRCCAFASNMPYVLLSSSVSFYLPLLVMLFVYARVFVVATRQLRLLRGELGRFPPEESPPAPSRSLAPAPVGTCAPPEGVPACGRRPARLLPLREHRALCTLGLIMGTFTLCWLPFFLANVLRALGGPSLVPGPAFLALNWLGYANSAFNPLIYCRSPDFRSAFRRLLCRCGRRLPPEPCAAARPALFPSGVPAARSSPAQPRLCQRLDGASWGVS

Compound: leptin: leptin (Ob protein), product of the Ob gene
appetite and obesity [1]: reduces appetite and hence obesity

Compound: C=C[C@@]1(C)CC(=O)[C@]2(O)[C@@]3(C)[C@@H](O)CCC(C)(C)[C@@H]3[C@H](O)[C@H](OC(C)=O)[C@@]2(C)O1 [forskolin]
lipolysis (glycerol generated relative to basal level, FIG. 4) [2]: lipolysis induced

Compound: CNC[C@H](O)c1ccc(O)c(O)c1 [epinephrine]
lipolysis (glycerol generated relative to basal level, FIG. 4) [2]: lipolysis induced

Compound: CC(C)NCC(O)c1ccc(O)c(O)c1 (stereo not shown) [isoproterenol, isoprenaline]
Accumulation of cAMP, pmol cAMP/mg protein ([3]; PAZ-6 differentiated): 2083 pmol cAMP/mg protein | Accumulation of cAMP, pmol cAMP/mg protein ([3]; PAZ-6 not differentiated): 4344 pmol cAMP/mg protein

Compound: NC[C@H](O)c1ccc(O)c(O)c1 [norepinephrine]
lipolysis (glycerol generated relative to basal level, FIG. 4) [2]: lipolysis induced

Compound: O=C(O)COc1ccc(OCCNCC(O)COc2ccccc2)cc1 (stereo not shown) [ICI 201651]
lipolysis (glycerol generated relative to basal level, FIG. 4) [2]: Lipolysis is also seen to be induced

Compound: C[C@H](Cc1ccc2c(c1)OC(C(=O)O)(C(=O)O)O2)NC[C@H](O)c1cccc(Cl)c1 [CL 316,43]
levels of mRNA coding for the Ob protein [4]: reduce substantially | lipolysis (glycerol generated relative to basal level, FIG. 4) [2]: Lipolysis is also seen to be induced

reduction of the number of I-CYP binding sites [5]: 34%
Compound: Cc1ccc(OCC(O)C(C)NC(C)C)c2c1CCC2 (stereo not shown) [ICI 118551]

Compound: CC(C)(C)NCC(O)COc1cccc2[nH]c(=O)[nH]c12 (stereo not shown) [CGP 12177A]
Accumulation of cAMP, pmol cAMP/mg protein ([3]; PAZ-6 differentiated): 323 ± 129 pmol cAMP/mg protein | Accumulation of cAMP, pmol cAMP/mg protein ([3]; PAZ-6 not differentiated): 254 ± 167 pmol cAMP/mg protein | stimulation of the adenylyl cyclase ([3]; undifferentiated PAZ-6): does not cause any significant stimulation | stimulation (cAMP) compared with isoproterenol activating all β-AR sites [6]: 20% | lipolysis (glycerol generated relative to basal level, FIG. 4) [2]: Lipolysis is also seen to be induced

Compound: CCc1ccc(CCOc2ccc(CC3SC(=O)NC3=O)cc2)nc1 (stereo not shown) [pioglitazone]
differentiation into mature adipocytes [7]: significantly increased
